How the values were obtained:
Format in all cases: physicochemical
[1] = Percentage increase of mass of amine compound left to stand in air (absorption of carbon dioxide); conditions: 23° C. and 50% RH
Text: Percentage increase of mass of cyclic amine compound (a1) [% by mass]=100×amount of increase of mass of cyclic amine compound (a1)(g)/(mass of cyclic amine compound (a1)(g)+amount of increase of mass of cyclic amine compound (a1)(g)).
[…] By doing so 1,3-BAC and carbon dioxide in the air were reacted to give a blowing agent (carbonate of 1,3-BAC). At that stage, to suppress uneven reaction, the container in which the amine compound was placed was shaken as necessary so as not to leave unreacted 1,3-BAC.
Next, the amount of increase of the mass of 1,3-BAC was measured and the percentage increase of the mass of the amine compound was calculated by the following equation.

[2] = Amine value of amine compound (JIS K7237-1995 titration); conditions: titration with 0.1 N perchloric acid-acetic acid
Experimental: The amine value was measured by the following measurement method according to JIS K7237-1995. • (1) 0.1 g of the amine compound was dissolved in 20 mL of acetic acid. • (2) The amine value was calculated by titrating the solution prepared in (1) above with 0.1 N perchloric acid-acetic acid solution using an automatic potentiometric titrator (AT-610 made by Kyoto Electronics Manufacturing Co., Ltd.)

[3] = Acid dissociation constant (pKa) of amine compound (potentiometric titration); conditions: in purified water, 25±2° C.
Experimental: The acid dissociation constant of the amine compound was measured by the following measurement method. • (1) 0.2 g of the amine compound was dissolved in 30 mL of purified water. • (2) The acid dissociation constant (pKa) was calculated by titrating the solution prepared in (1) above with 0.1 N perchloric acid-acetic acid solution using an automatic potentiometric titrator (AT-610 made by Kyoto Electronics Manufacturing Co., Ltd.). The temperature in the measurement was 25±2° C.

[4] = Maximum endothermic temperature of amine compound (DTA); conditions: heating rate 10° C./minute, 23 to 350° C., nitrogen; evaporation of amine compound
Experimental: The cyclic amine compound (a1) is heated at a heating rate of 10° C./minute from 23° C. to 350° C. and the temperature at which the amount of heat absorbed due to evaporation of the amine compound (a1) reaches the maximum is measured, and the temperature is defined as the maximum endothermic temperature of the amine compound (a1).
The maximum endothermic temperature of the amine compound was measured by subjecting the amine compound to DTA as described below. First, […] of the amine compound was performed under conditions of a temperature range of 23 to 350° C., a heating rate of 10° C./minute and a nitrogen atmosphere using a differential thermogravimeter (product name DTG-60 made by Shimadzu Corporation). The temperature at which the amount of heat absorbed due to the evaporation of the amine compound was the maximum was calculated from the DTA curve obtained, and the temperature was determined as the maximum endothermic temperature of the amine compound.

[5] = Maximum carbon dioxide (CO2) release temperature of amine compound (DSC after CO2 absorption in air); conditions: amine compound after 24 hours in air at 23° C. and 50% RH; heating rate 10° C./minute, 23 to 250° C., nitrogen
Experimental: The cyclic amine compound (a1) with carbon dioxide absorbed is heated at a heating rate of 10° C./minute from 23° C. to 250° C., and the temperature at which the amount of heat absorbed due to desorption of carbon dioxide reaches the maximum is measured, and the temperature is defined as the maximum carbon dioxide release temperature. In this regard the cyclic amine compound (a1) with carbon dioxide absorbed may be prepared by leaving 5 mmol of the cyclic amine compound (a1) to stand in air at 23° C. and 50% RH for 24 hours.
A carbon dioxide detector and a Petri dish were placed in an openable desiccator (inner dimension: 370 mm×260 mm×272 mm). […]
Then the amine compound was taken out of the desiccator to give an amine compound with carbon dioxide absorbed. The maximum carbon dioxide release temperature of the amine compound with carbon dioxide absorbed was measured by subjecting the amine compound to DSC as described below. […] The temperature at which the amount of heat absorbed due to the desorption of carbon dioxide was the maximum was calculated from the DSC curve obtained, and the temperature was determined as the maximum carbon dioxide release temperature of the amine compound.

Percentage increase of mass ([1]; CO2 absorption time 10 weeks)	Amine value [2]	pKa [3]	Maximum endothermic temperature [4]	Percentage increase of mass ([1]; CO2 absorption time 1 week)	Maximum CO2 release temperature [5]	Structure (SMILES)
22.5 % by mass	789 mgKOH/g					NCC1CCCC(CN)C1 (stereo not shown) [1,3-BAC, 1,3-bis(aminomethyl)cyclohexane]
		9.8	126.7 °C	44.3 % by mass	103.4 °C	NCCN [Ethylenediamine, ethylenediamine]
	824 mgKOH/g					NCc1cccc(CN)c1 [MXDA, metaxylylenediamine]
